Test results from patent US8748481B2, “Method for treating gastrointestinal disorder” (Sucampo AG, priority 2004, dated 2014).
Marks after values point to notes of the source that are not given here.

System: subjects with irritable bowel syndrome (IBS)
Assay: IBS QOL questionnaire, 12-week double-blind randomized study (Example 7)
Assay type: in vivo, human
Design: key to IBS QOL Overall scaled score, Mean / IBS QOL Dysphoria scaled score, Mean / IBS QOL Interference with Activity scaled score, Mean / IBS QOL Body Image scaled score, Mean / IBS QOL Health Worry scaled score, Mean / IBS QOL Food Avoidance scaled score, Mean / IBS QOL Social Reaction scaled score, Mean / IBS QOL Sexual scaled score, Mean / IBS QOL Relationship scaled score, Mean: IBS-QOL scaled score, 0–100
Conditions: for IBS QOL Body Image scaled score, Mean / IBS QOL Dysphoria scaled score, Mean / IBS QOL Food Avoidance scaled score, Mean / IBS QOL Health Worry scaled score, Mean / IBS QOL Interference with Activity scaled score, Mean / IBS QOL Overall scaled score, Mean / IBS QOL Relationship scaled score, Mean / IBS QOL Sexual scaled score, Mean / IBS QOL Social Reaction scaled score, Mean: Baseline; for IBS QOL Body Image, Mean change from Baseline / IBS QOL Dysphoria, Mean change from Baseline / IBS QOL Food Avoidance, Mean change from Baseline / IBS QOL Health Worry, Mean change from Baseline / IBS QOL Interference with Activity, Mean change from Baseline / IBS QOL Overall, Mean change from Baseline / IBS QOL Relationship, Mean change from Baseline / IBS QOL Sexual, Mean change from Baseline / IBS QOL Social Reaction, Mean change from Baseline: without LOCF
Description: A 12-week, double-blind, randomized study was performed to assess the safety and efficacy of oral 16 μg, 32 μg and 48 μg (total daily dose) of compound A to subjects with irritable bowel syndrome (IBS).
The patients answered the IBS QOL questionnaire at baseline, at week 4, Week 12 and at the end of study, and Questionnaire results were scored according to the IBS QOL User's Manual (A Quality of Life Measure for Persons with Irritable Bowel Syndrome (IBS-QOL): User's Manual and Scoring Diskette for United States Version. Seattle, Wash.: University of Washington; 1997). Scaled scores were used for all analyses, and scores were calculated according to the User's Manual as follows: Scaled Score=([Sum of IBS-QOL items−lowest possible score]/Possible raw score range))×100
Changes from baseline at week 4, week 12 and at the End of Study were assessed for the mean overall score and for the mean domain scores (dysphoria, interference with activity, body image, health worry, food avoidance, social reaction, sexual, and relationship).

Structure (SMILES): CCCCC(F)(F)C(=O)CCC1C(O)CC(=O)C1CCCCCCC(=O)O (stereo not shown) [Compound A, 13,14-dihydro-15-keto-16,16-difluoro-PGE1]
- Improvement from baseline in IBS-QOL compared among dose groups (16 μg group vs. 32 μg and 48 μg groups, every specific area and QOL overall): greatest improvement
- IBS QOL Body Image scaled score, Mean (16 μg group): 41.42
- IBS QOL Dysphoria scaled score, Mean (16 μg group): 53.19
- IBS QOL Food Avoidance scaled score, Mean (16 μg group): 46.08
- IBS QOL Health Worry scaled score, Mean (16 μg group): 37.74
- IBS QOL Interference with Activity scaled score, Mean (16 μg group): 65.82
- IBS QOL Overall scaled score, Mean (16 μg group): 55.66
- IBS QOL Relationship scaled score, Mean (16 μg group): 67.81
- IBS QOL Sexual scaled score, Mean (16 μg group): 64.95
- IBS QOL Social Reaction scaled score, Mean (16 μg group): 63.97
- IBS QOL Body Image, Mean change from Baseline (16 μg/day, End of Study): 20.41**
- IBS QOL Dysphoria, Mean change from Baseline (16 μg/day, End of Study): 21.62**
- IBS QOL Food Avoidance, Mean change from Baseline (16 μg/day, End of Study): 13.95**
- IBS QOL Health Worry, Mean change from Baseline (16 μg/day, End of Study): 21.94**
- IBS QOL Interference with Activity, Mean change from Baseline (16 μg/day, End of Study): 11.95**
- IBS QOL Overall, Mean change from Baseline (16 μg/day, End of Study): 16.82**
- IBS QOL Relationship, Mean change from Baseline (16 μg/day, End of Study): 14.28**
- IBS QOL Sexual, Mean change from Baseline (16 μg/day, End of Study): 14.03**
- IBS QOL Social Reaction, Mean change from Baseline (16 μg/day, End of Study): 13.78**
- IBS QOL Body Image, Mean change from Baseline (16 μg/day, Week 4): 16.39**
- IBS QOL Dysphoria, Mean change from Baseline (16 μg/day, Week 4): 17.85**
- IBS QOL Food Avoidance, Mean change from Baseline (16 μg/day, Week 4): 13.89**
- IBS QOL Health Worry, Mean change from Baseline (16 μg/day, Week 4): 22.41**
- IBS QOL Interference with Activity, Mean change from Baseline (16 μg/day, Week 4): 10.87**
- IBS QOL Overall, Mean change from Baseline (16 μg/day, Week 4): 14.7**
- IBS QOL Relationship, Mean change from Baseline (16 μg/day, Week 4): 10.74**
- IBS QOL Sexual, Mean change from Baseline (16 μg/day, Week 4): 13.33**
- IBS QOL Social Reaction, Mean change from Baseline (16 μg/day, Week 4): 11.94**
- IBS QOL Body Image, Mean change from Baseline (16 μg/day, Week 12): 22.32**
- IBS QOL Dysphoria, Mean change from Baseline (16 μg/day, Week 12): 23.51**
- IBS QOL Food Avoidance, Mean change from Baseline (16 μg/day, Week 12): 15.28**
- IBS QOL Health Worry, Mean change from Baseline (16 μg/day, Week 12): 23.81**
- IBS QOL Interference with Activity, Mean change from Baseline (16 μg/day, Week 12): 13.95**
- IBS QOL Overall, Mean change from Baseline (16 μg/day, Week 12): 18.54**
- IBS QOL Relationship, Mean change from Baseline (16 μg/day, Week 12): 15.47**
- IBS QOL Sexual, Mean change from Baseline (16 μg/day, Week 12): 16.67**
- IBS QOL Social Reaction, Mean change from Baseline (16 μg/day, Week 12): 14.58**
- IBS QOL Body Image scaled score, Mean (32 μg group): 43.37
- IBS QOL Dysphoria scaled score, Mean (32 μg group): 59.69
- IBS QOL Food Avoidance scaled score, Mean (32 μg group): 52.21
- IBS QOL Health Worry scaled score, Mean (32 μg group): 44.38
- IBS QOL Interference with Activity scaled score, Mean (32 μg group): 69.82
- IBS QOL Overall scaled score, Mean (32 μg group): 60.14
- IBS QOL Relationship scaled score, Mean (32 μg group): 70.23
- IBS QOL Sexual scaled score, Mean (32 μg group): 68.62
- IBS QOL Social Reaction scaled score, Mean (32 μg group): 66.84
- IBS QOL Body Image, Mean change from Baseline (32 μg/day, End of Study): 17.47**
- IBS QOL Dysphoria, Mean change from Baseline (32 μg/day, End of Study): 14.77**
- IBS QOL Food Avoidance, Mean change from Baseline (32 μg/day, End of Study): 10.79**
- IBS QOL Health Worry, Mean change from Baseline (32 μg/day, End of Study): 17.61**
- IBS QOL Interference with Activity, Mean change from Baseline (32 μg/day, End of Study): 8.2**
- IBS QOL Overall, Mean change from Baseline (32 μg/day, End of Study): 12.58**
- IBS QOL Relationship, Mean change from Baseline (32 μg/day, End of Study): 10.79**
- IBS QOL Sexual, Mean change from Baseline (32 μg/day, End of Study): 10.23**
- IBS QOL Social Reaction, Mean change from Baseline (32 μg/day, End of Study): 11.08**
- IBS QOL Body Image, Mean change from Baseline (32 μg/day, Week 4): 15.28**
- IBS QOL Dysphoria, Mean change from Baseline (32 μg/day, Week 4): 14.58**
- IBS QOL Food Avoidance, Mean change from Baseline (32 μg/day, Week 4): 8.33*
- IBS QOL Health Worry, Mean change from Baseline (32 μg/day, Week 4): 16.9**
- IBS QOL Interference with Activity, Mean change from Baseline (32 μg/day, Week 4): 7.04*
- IBS QOL Overall, Mean change from Baseline (32 μg/day, Week 4): 11.25**
- IBS QOL Relationship, Mean change from Baseline (32 μg/day, Week 4): 7.64*
- IBS QOL Sexual, Mean change from Baseline (32 μg/day, Week 4): 8.68**
- IBS QOL Social Reaction, Mean change from Baseline (32 μg/day, Week 4): 9.9**
- IBS QOL Body Image, Mean change from Baseline (32 μg/day, Week 12): 17.99**
- IBS QOL Dysphoria, Mean change from Baseline (32 μg/day, Week 12): 15.25**
- IBS QOL Food Avoidance, Mean change from Baseline (32 μg/day, Week 12): 11.36**
- IBS QOL Health Worry, Mean change from Baseline (32 μg/day, Week 12): 19.44**
- IBS QOL Interference with Activity, Mean change from Baseline (32 μg/day, Week 12): 9.42**
- IBS QOL Overall, Mean change from Baseline (32 μg/day, Week 12): 13.08**
- IBS QOL Relationship, Mean change from Baseline (32 μg/day, Week 12): 9.09*
- IBS QOL Sexual, Mean change from Baseline (32 μg/day, Week 12): 10.98**
- IBS QOL Social Reaction, Mean change from Baseline (32 μg/day, Week 12): 10.8**
- IBS QOL Body Image scaled score, Mean (48 μg group): 45.69
- IBS QOL Dysphoria scaled score, Mean (48 μg group): 56.81
- IBS QOL Food Avoidance scaled score, Mean (48 μg group): 50.37
- IBS QOL Health Worry scaled score, Mean (48 μg group): 44.07
- IBS QOL Interference with Activity scaled score, Mean (48 μg group): 68.25
- IBS QOL Overall scaled score, Mean (48 μg group): 59.85
- IBS QOL Relationship scaled score, Mean (48 μg group): 75.18
- IBS QOL Sexual scaled score, Mean (48 μg group): 71.94
- IBS QOL Social Reaction scaled score, Mean (48 μg group): 66.81
- IBS QOL Body Image, Mean change from Baseline (48 μg/day, End of Study): 14.24**
- IBS QOL Dysphoria, Mean change from Baseline (48 μg/day, End of Study): 16.28**
- IBS QOL Food Avoidance, Mean change from Baseline (48 μg/day, End of Study): 8.33**
- IBS QOL Health Worry, Mean change from Baseline (48 μg/day, End of Study): 17.05**
- IBS QOL Interference with Activity, Mean change from Baseline (48 μg/day, End of Study): 7.97**
- IBS QOL Overall, Mean change from Baseline (48 μg/day, End of Study): 11.54**
- IBS QOL Relationship, Mean change from Baseline (48 μg/day, End of Study): 6.01**
- IBS QOL Sexual, Mean change from Baseline (48 μg/day, End of Study): 3.49
- IBS QOL Social Reaction, Mean change from Baseline (48 μg/day, End of Study): 12.06**
- IBS QOL Body Image, Mean change from Baseline (48 μg/day, Week 4): 13.24**
- IBS QOL Dysphoria, Mean change from Baseline (48 μg/day, Week 4): 17.28**
- IBS QOL Food Avoidance, Mean change from Baseline (48 μg/day, Week 4): 12.01**
- IBS QOL Health Worry, Mean change from Baseline (48 μg/day, Week 4): 19.61**
- IBS QOL Interference with Activity, Mean change from Baseline (48 μg/day, Week 4): 9.14**
- IBS QOL Overall, Mean change from Baseline (48 μg/day, Week 4): 12.43**
- IBS QOL Relationship, Mean change from Baseline (48 μg/day, Week 4): 6.87**
- IBS QOL Sexual, Mean change from Baseline (48 μg/day, Week 4): 8.46**
- IBS QOL Social Reaction, Mean change from Baseline (48 μg/day, Week 4): 8.82**
- IBS QOL Body Image, Mean change from Baseline (48 μg/day, Week 12): 17.08**
- IBS QOL Dysphoria, Mean change from Baseline (48 μg/day, Week 12): 20.83**
- IBS QOL Health Worry, Mean change from Baseline (48 μg/day, Week 12): 23.33**
- IBS QOL Interference with Activity, Mean change from Baseline (48 μg/day, Week 12): 10.95**
- IBS QOL Overall, Mean change from Baseline (48 μg/day, Week 12): 14.8**
- IBS QOL Relationship, Mean change from Baseline (48 μg/day, Week 12): 6.95**
- IBS QOL Sexual, Mean change from Baseline (48 μg/day, Week 12): 5
- IBS QOL Social Reaction, Mean change from Baseline (48 μg/day, Week 12): 14.17**
- IBS-QOL change from baseline vs. zero (all groups (16, 32, 48 μg)): significantly different from Zero
